Values of other authors as cited in patent US6576233B2 (priority 1996, dated 2003).

Legend:
[1] = Ferris et al. 1989
people = settings: daily supplement, more than 1,300 people

[Se] [Selenium, selenium]
dosage reported as safe [1]: 600 micrograms per day | reduction of overall cancer risk (people): ~40%
